According to patent US10745454B2, “Method of synthesizing antagonist peptides for cell growth” (priority 2018, dated 2020):

Tests used:
4T1 tumor = assay: Histopathological staining of angiogenesis markers CD31 and CD34 in 4T1 tumors of treated mice; type: in vivo, BALB/c mice; conditions: 4T1 tumor tissue; i.p. daily, two weeks
Experimental: In vivo Tumor Growth Regression-Animal studies are conducted according to relevant national and international guidelines of the Weatherall report and Institutional Animal Care and Use Committee (IACUC) of Tehran University of Medical Sciences. The tumors induced in the female BALB/c mice (5 weeks old) are purchased from the Laboratory Animal Center of Iran Pasteur Institute and maintained under 12 h dark and light cycle. The 4T1 tumor model mouse are sterilized and established from the breast cancer bearing BALB/c mice by a standard protocol. The 4T1 tumor model mouse are prepared by cutting the tumor into pieces of <0.3 cm3. […] The tumor volume is measured every two days by a digital Vernier caliper (Mitutoyo, japan), using the following formula: v=a2×b×0.52 (where “a” is the shortest and “b” is the longest diameter).
Histopathological analyses—The excised tumor tissues are fixed in formalin (4%), embedded in paraffin, sectioned and stained against CD31, CD34, Ki-67, P53, Bcl-2 and TUNEL. […] To count microvessels of the murine breast cancer tissue, the 5 randomly selected vascularized areas are counted under scale bar 100 and 20 μm. The microvascular density (MVD) of the tumor is measured and evaluated by the standard protocol. The microvessels are manually counted on the images at scale bar of 20 μm. […]

bFGFR-1 (receptor) = target: T1, bFGFR-1 (receptor) (Homo sapiens, UniProt P11362); assay: Competitive binding assay with bFGFR-1 in HUVECs (immunofluorescence); conditions: peptide 1000-2000 ng/ml overnight
T1 construct: with bFGFR-1 (receptor) in Human Umbilical Vein Endothelial Cells (HUVECs); endogenous in cells; host or cells: HUVEC (Human Umbilical Vein Endothelial Cells)
T1 sequence (P11362 22-822): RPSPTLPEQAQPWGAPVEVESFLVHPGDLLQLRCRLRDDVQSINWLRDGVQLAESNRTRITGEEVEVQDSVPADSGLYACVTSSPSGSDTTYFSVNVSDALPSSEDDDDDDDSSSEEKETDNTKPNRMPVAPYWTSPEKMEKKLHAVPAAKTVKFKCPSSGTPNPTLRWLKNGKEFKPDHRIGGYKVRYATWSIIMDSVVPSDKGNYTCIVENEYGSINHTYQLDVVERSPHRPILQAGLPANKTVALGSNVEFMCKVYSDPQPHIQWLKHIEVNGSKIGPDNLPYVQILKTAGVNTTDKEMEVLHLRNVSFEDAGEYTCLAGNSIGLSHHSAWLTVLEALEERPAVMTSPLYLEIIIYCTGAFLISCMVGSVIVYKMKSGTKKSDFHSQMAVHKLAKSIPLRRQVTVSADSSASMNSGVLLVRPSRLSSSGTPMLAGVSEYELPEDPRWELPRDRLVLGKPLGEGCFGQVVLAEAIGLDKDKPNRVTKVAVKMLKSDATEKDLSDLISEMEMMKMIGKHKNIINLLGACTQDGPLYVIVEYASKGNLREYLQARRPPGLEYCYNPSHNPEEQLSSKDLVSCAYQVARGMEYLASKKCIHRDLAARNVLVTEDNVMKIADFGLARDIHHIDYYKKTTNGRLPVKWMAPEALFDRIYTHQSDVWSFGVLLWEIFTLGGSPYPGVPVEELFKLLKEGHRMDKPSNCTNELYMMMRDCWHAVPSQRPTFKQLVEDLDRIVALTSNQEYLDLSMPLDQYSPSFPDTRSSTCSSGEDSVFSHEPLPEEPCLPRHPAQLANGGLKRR
Experimental: Binding Assay—To assess competitive binding assay of bFGF antagonist, Human Umbilical Vein Endothelial Cells(HUVECs) are cultured in 96-well plates (5000 cells/well) with DMEM and 5% fetal bovine serum (FBS) incubated at 37° C. for overnight. After 24 h, the media in the 96-well plates is changed with DMEM without FBS and the cells are treated (except the control 96-well plates) with 1000-2000 ng/ml the peptides at 37° C. for overnight. The cells are fixed by 4% paraformaldehyde at room temperature for 5-10 min. After 5-10 minutes the cells are rinsed with phosphate buffer saline (PBS), permeabilized with PBS+0.3% Triton X-100. The […] with a mixture comprising 10% normal goat serum, bovine serum albumin (BSA) 1% PBST for 20 minutes in the room temperature. After 20 minutes the cells are subjected to anti-FGFR-1 (5000 ng/ml, Ab10646) with FITC-secondary (Ab6717) antibody and stained with propidium iodide (Sigma Aldrich, USA, P4170) (1 μg/ml) for nuclear staining. The cell-binding is analyzed by NIH Image J software.

[1] = tested on: ovarian cancer cell line SKOV3; assay: bFGF-induced SKOV3 proliferation assay (MTT); type: cell-based, human; conditions: for bFGF-induced proliferation of SKOV3: hr-bFGF, peptide 25-1000 ng/ml, 5-6 days
Experimental: Cell Proliferation Assay—To analyze the ability of basic fibroblast growth factor (bFGF) antagonist peptide to inhibit the bFGF-induced cell proliferation, the ovarian cell line SKOV3 is utilized. The SKOV3 cell line is found to be dependent on bFGF for cellular proliferation. For cell culture, SKOV3 cells are maintained in DMEM supplemented with 5% FBS, 1% streptomycin, penicillin, […] glutamine and is mycoplasma free.
For estimating the anti-proliferative activity of bFGF, SKOV3 is plated at 1×10^4 cell per well in a 24 well dish in 1 ml DMEM, the cells are maintained in DMEM and treated with human recombinant bFGF (hr-bFGF) (0-100 ng/ml) alone and in combination with different concentration of the antagonistic peptide (25-1000 ng/ml) every other day for total 5-6 days. The experiment is terminated when cells are in confluence. The MTT assay is performed. The absorbance is determined at 540 nm. The results are expressed as the mean of triplicate experiments (+SD). One-way analysis of variance is used to determine significance.

[2] = tested on: PI3K/AKT and MAPK/ERK1/2 pathways; assay: Quantitative Western blot of PI3K/AKT and MAPK/ERK1/2 activation in 4T1 tumor extracts; type: in vivo, murine
Experimental: In vivo Tumor Growth Regression-Animal studies are conducted according to relevant national and international guidelines of the Weatherall report and Institutional Animal Care and Use Committee (IACUC) of Tehran University of Medical Sciences. The tumors induced in the female BALB/c mice (5 weeks old) are purchased from the Laboratory Animal Center of Iran Pasteur Institute and maintained under 12 h dark and light cycle. The 4T1 tumor model mouse are sterilized and established from the breast cancer bearing BALB/c mice by a standard protocol. The 4T1 tumor model mouse are prepared by cutting the tumor into pieces of <0.3 cm3. The tumor pieces are subcutaneously transplanted into the left flank of the mouse under ketamine (100 mg/kg, i.p.) and xylazine (10 mg/kg, i.p.) anesthesia. The mouse carrying tumors with a tumor size reaching to 400 mm3 are randomized and divided into groups. Each group of tumor induced mice comprises 6 mouse. The first group is treated with vascular endothelial growth factor (VEGF). The second group is treated with phosphate buffer saline. The first group or treated groups receives daily 1, 2.5 and 10 mg/kg i.p. of VEGF-antagonistic peptides compared to PBS control group for two weeks. The tumor volume is measured every two days by a digital Vernier caliper (Mitutoyo, japan), using the following formula: v=a2×b×0.52 (where “a” is the shortest and “b” is the longest diameter).
The tumor tissues from control and peptide-treated (cultured cells or mice) are lysed with RIPA lysis buffer. […] Protein concentrations are assessed by Bradford assay. […]
The premium nitrocellulose western blotting membranes are washed with TBST and incubated with horseradish peroxidase-conjugated goat anti-mouse IgG secondary antibody. […] The quantitative analysis of protein expression to the reference protein, repeated at least three times, is performed using ImageJ. […]

HUVECs = assay: Matrigel tube formation assay, bFGF antagonist; type: cell-based, human; conditions: peptide 2000 ng/ml
adipose tissue = conditions: mice; cited from earlier work
endothelial cell = conditions: Alzheimer's disease context; cited from earlier work
[3] = listed as bFGF antagonistic peptide
[4] = 4T1 mammary carcinoma tumor tissues

## 2HN-Leu119-Lys120-Arg121-Thr122-Gly123-Gln124-Tyr125-Lys126-Leu127-COOH (H-LKRTGQYKL-OH; listed as Homo sapiens) [Seq. ID No. 5, antagonist of bFGF, residues 119-127 of bFGF]
4T1 tumor
  anti-angiogenic effect, staining of angiogenesis marker CD31: inhibits the angiogenesis
  anti-angiogenic effect, staining of angiogenesis marker CD34: inhibits the angiogenesis
bFGFR-1 (receptor)
  binding to bFGFR-1: recognizes bFGFR
bFGFR-1 (receptor); [3]
  binding to bFGFR-1: recognizes and binds
[1]
  bFGF-induced proliferation of SKOV3: suppressing bFGF-induced proliferation
[1]; listed as bFGF antagonist peptide
  bFGF-induced proliferation of SKOV3: inhibits the bFGF-induced proliferation of ovarian cancer cell line SKOV3 in a dose-dependent manner
[1]; [3]
  bFGF-induced proliferation of SKOV3: inhibit the proliferation
[1]; peptide 400 ng/ml
  SKOV3 cell proliferation at 400 ng/ml peptide: reduced
[2]; [4]
  AKT phosphorylation: able to block
  ERK1/2 phosphorylation: able to block
[2]; dosages 1 and 10 mg/kg
  difference in p-AKT or p-ERK inhibition levels between dosages: no significant difference
HUVECs
  anti-angiogenic activity, Matrigel assay: inhibits the angiogenesis process

## CO[C@@H]1[C@H](OC(=O)NC(=O)CCl)CC[C@]2(CO2)[C@H]1[C@@]1(C)O[C@@H]1CC=C(C)C [TNP-470]
Adipose tissue
  diet-induced and genetic obesity: able to prevent
  vascularity in the adipose tissue: reduced

## CN(C)c1ccc(/C=C2\C(=O)Nc3ccccc32)cc1 [SU 4312]
Endothelial cell
  vessel formation: could be blocked
